Melting point data for 91 compounds are collected here from a melting point compilation (Tetko et al.; mined from patent text by program, amines drawn as free bases though some values may be those of a salt).

The melting point is the temperature of the solid-liquid transition. Turning to `CC(=O)OC1CC2C3CCC4=CC(=O)CCC4(C)C3CCC2(C)C1N(C)C(=O)C(F)(F)F` (stereo unspecified), the melting point fell in the range of 173 to 174 °C.

Compound `COc1ccc(C2(C=O)CCC(=O)CC2)cc1OC1CCCC1` showed a melting point of 55 to 57 °C.

For `N#CCNS(=O)(=O)c1ccc([N+](=O)[O-])cc1`, the melting point was in the range of 115 to 120 °C.

In turn, `O=[N+]([O-])CS(=O)(=O)c1ccc(O)cc1` displayed a melting point of 93 to 95 °C.

In turn, `COc1c(-n2cccc2)cc(CC(C#N)=CNc2ccccc2)cc1-n1cccc1` displayed a melting point of 152 °C.

The compound `Nc1c(Cl)cc(C(O)CNCCCCCOCCc2ccccn2)cc1Cl` (stereo unspecified) showed a melting point of 140 to 142 °C.

`Oc1ccc2c(ccn2-c2ccnc(N[C@H]3CC[C@H](O)CC3)n2)c1` registered a melting point of 246 to 248 °C.

Compound `CCCC1NS(=O)(=O)N(COC(=O)c2c(Cl)cccc2Cl)C1=O` (stereo unspecified) gave a melting point of 95 to 97 °C.

Take `Cc1ccc(NS(=O)(=O)c2ccccc2)cc1NC(=O)Cc1ccc(C#N)cc1`: the melting point lay in the range of 120 to 122 °C.

`FC(F)(F)c1ccnc(N2CCN(Cc3n[nH]c4ccccc34)CC2)c1` yielded a melting point of 99 to 100 °C.

The compound `FC(F)(F)c1ccc(-c2ncc(CCl)s2)cc1` came in with a melting point of 55 to 57 °C.

The compound `COC1=CCC2=C(CCC3C2CCC2(C)C(O)CCC32)C1` (stereo unspecified) came in with a melting point of 110 °C.

As to `CON1CCC2(CC1)C(OCc1ccccc1)=C(c1c(C)cc(C)cc1C)C(=O)N2CC1CC1`, the melting point fell in the range of 119 to 121 °C.

The compound `CN1CCC(O)(c2cccn2C)CC1` gave a melting point of 123 to 124 °C.

`CC(=O)c1cc(=O)n(CCC(C(=O)NO)N(C)S(=O)(=O)c2ccc(Oc3ccccc3)cc2)c(=O)[nH]1` (stereo unspecified) had a melting point of 167 to 169 °C.

`CCOC(=O)C1=C(Cl)N=C(C)N(C(=O)OC)C1c1cccc([N+](=O)[O-])c1` (stereo unspecified) came in with a melting point of 113 to 114 °C.

Compound `CC(=O)Oc1cccc2c1C(=O)c1c(O)cccc1C2C(=O)C1CCCCC1` (stereo unspecified) showed a melting point of 154 °C.

As to `O=C1NC(=O)C(S(=O)(=O)c2ccccc2)S1` (stereo unspecified), the melting point fell in the range of 130 to 133 °C.

Consider `C#CC1(O)CCN(CC=C(c2ccccc2)c2ccccc2)CC1`, for which the melting point was in the range of 122 to 123 °C.

For `CC(C)(C)c1cc(I)c2c(c1)C=NS(=O)(=O)O2`, the melting point was 130 to 134 °C.

Compound `Nc1ccc(-c2ccnc(-c3ccc(C(F)(F)F)cc3)n2)cc1` displayed a melting point of 166 to 167 °C.

For `COc1cnc[nH]c1=O`, the melting point is 206 to 208 °C.

Compound `CCOC(=O)c1cc(=O)c2c(ccc3c4ccccc4c(=O)oc32)o1` returned a melting point of 240 to 242 °C.

`CCCN1c2cscc2CN(C)c2ccccc21`: the melting point fell in the range of 90 to 92 °C.

For `Cc1cc(C(C)C)c(S(C)(=O)=O)cc1C(=O)N=C(N)N`, the melting point was 220 to 223 °C.

With `COC(=O)c1cc2cc(OC)c(OC)cc2cc1C(=O)O`, the melting point lay within 181 to 183 °C.

The compound `CC1(c2ccccc2Cl)C(=O)Nc2ccc(Cl)cc21` (stereo unspecified) gave a melting point of 185 °C.

Consider `Cc1[nH]c2ccccc2c1CCN1CCC(Oc2ccc(F)cc2)CC1`, for which the melting point lay in the range of 97 to 99 °C.

As for `O=C(c1c[nH]nc1-c1ccccc1)C(CCN1CCC(O)(c2ccccc2)CC1)c1ccc(Cl)c(Cl)c1` (stereo unspecified), the melting point lay within 99 to 101 °C.

In turn, `COC(=O)c1ccnc(Cl)c1N` yielded a melting point of 91 to 92 °C.

`CCCCCCCCOc1ccc(-c2ncc(Br)cn2)c(F)c1F`: the melting point worked out at 74.6 °C.

Regarding `CS(=O)(=O)c1ccc(Oc2ccc(Cl)c(Cl)c2)c(N)c1`, the melting point is 119 to 121 °C.

In the case of `O=[N+]([O-])c1ccc(-c2scc3c2OCCO3)cc1`, the melting point lay in the range of 184 to 186 °C.

Consider `CC1(C)C(=O)C(C)(C)c2cc3[nH]c(S)nc3cc21`, for which the melting point is > 300 °C.

Compound `C#CCOc1cc(C(=O)OC)ccc1F` gave a melting point of 60.5 to 61.5 °C.

In turn, `S=C(Nc1ccc(Cl)cc1)Nc1ncccc1OCc1ccccc1` yielded a melting point of 140 to 143 °C.

In turn, `CN1CCC(=C2c3ccccc3CCc3ccc(CO)cc32)CC1` gave a melting point of 178 to 181 °C.

`CC#COc1ccc2c(=O)c(C)c(-c3ccccc3)oc2c1` showed a melting point of 179 to 180 °C.

Compound `COc1ccc2c(=O)c(-c3ccc(OCC(O)CN4CCOCC4)cc3)coc2c1` (stereo unspecified) displayed a melting point of 117 to 118 °C.

The compound `N#Cc1ccc(OCCOc2ccc(C#N)cc2)cc1` displayed a melting point of 196 to 197 °C.

Turning to `CCCc1nc2c(N)nc3cc(-c4ccccc4C(N)=O)ccc3c2s1`, the melting point was in the range of 274 to 276 °C.

As for `CN(C)C=C(C(=O)OC(C)(C)C)C(=O)c1ccccc1Cl`, the melting point lay within 97 to 99 °C.

Turning to `COC(=O)Nc1ccc(-c2ncn(-c3ccc(OC(F)(F)C(F)(F)F)cc3)n2)cc1`, the melting point lay within 183 to 184 °C.

`CCOC(=O)C(Cc1ccccc1)NC(=O)N(N(CCCl)S(C)(=O)=O)S(C)(=O)=O` (stereo unspecified) showed a melting point of 106 to 107 °C.

For `O=c1ccn([C@H]2C=C[C@@H](O)CC2)c(=O)[nH]1` (racemic), the melting point lay in the range of 161 to 162 °C.

The compound `COc1cccc(N2Sc3ccccc3CC2=O)c1OCc1ccccc1` came in with a melting point of 151 to 153 °C.

The compound `COc1ccc(C2CNC(=O)O2)cc1OCc1ccccc1` (stereo unspecified) registered a melting point of 83 to 91 °C.

`O=C(O)C(=O)CC(=O)c1cccn1Cc1cc(F)ccc1F` yielded a melting point of 142 to 146 °C.

For `Cn1ncnc1COc1nn2c(-c3ccccc3)nnc2cc1C12CCC(CC1)C2`, the melting point lay in the range of 244 to 246 °C.

With `CCn1ncnc1COc1nc2c(cnn2-c2ccccc2)c2ccccc12`, the melting point fell in the range of 147 to 148 °C.

`OCc1ccc(-c2cccnc2)o1` had a melting point of 119 to 120 °C.

In turn, `CC(C)(O)c1ccc(C(Cc2ccc(F)cc2)C(=O)Nc2nc3ccccc3o2)cc1` (stereo unspecified) registered a melting point of 87 to 90 °C.

Regarding `CCOC(=O)N1CCc2nc3ccccc3c(O)c2CC1`, the melting point was determined as 252 °C.

`O=C1Cc2cc(C3=NNC(=O)C4CCC34)ccc2N1` (stereo unspecified) yielded a melting point of 309 to 312 °C.

Regarding `O=C(CCCCCCn1ccc2ccc([N+](=O)[O-])cc21)NS(=O)(=O)c1ccccc1`, the melting point is 117 to 121 °C.

On to `NC(=O)NCc1ccc(Nc2n[nH]c3ncnc(Nc4cccc(Cl)c4)c23)cc1`, for which the melting point is > 280 °C.

Consider `Cc1cnc2c(c1)COP(=S)(c1ccccc1)O2` (stereo unspecified), for which the melting point is 97 to 98 °C.

`O=C(O)C1=Cc2cc(Cl)c(Oc3ccc(F)c(F)c3)cc2OC1C(F)(F)F` (stereo unspecified) gave a melting point of 192 to 193 °C.

Compound `COC(=O)C1=C(C)NC(C)=C(C(=O)OCCN2CCN(C(c3ccccc3)c3ccccc3)CC2)C1c1cccc([N+](=O)[O-])c1` (stereo unspecified) returned a melting point of 166 to 169 °C.

With `O=C1Cc2cc(NC(=O)C(=O)N3CCC(COc4ccccc4)CC3)ccc2N1`, the melting point is 200 to 202 °C.

Compound `Cc1ccc(C2c3c(C)c(N4C(=O)CC(c5ccccc5)C4=O)c(C)c(C)c3OC2(C)C)cc1` (stereo unspecified) displayed a melting point of 130 to 131 °C.

On to `COc1ccc(N2CCN(c3c(C)c4c(c(OC)c3C)OC(C)C4)CC2)cc1` (stereo unspecified), for which the melting point was in the range of 109 to 111 °C.

In turn, `COCCN(CCC12CC3CC(CC(C3)C1)C2)C(=O)NCCCc1ccncc1` gave a melting point of 102 to 104 °C.

In turn, `CN(CCO)c1ccc(C=O)cc1` had a melting point of 72 °C.

As to `CCCNC(=O)C1CC(=O)N(c2cc(C(F)(F)F)cc(C(F)(F)F)c2)C1` (stereo unspecified), the melting point was 152 to 154 °C.

`O=C(O)CCCc1ccc(-c2ccccc2Cl)cc1` displayed a melting point of 60 to 61 °C.

Compound `O=C1CCC(c2ccc3[nH]c(-c4ccc(-n5ccnc5)cc4)cc3c2)=NN1` returned a melting point of 295 to 298 °C.

`Clc1cccc(CSc2ccncc2)c1` had a melting point of 222 to 224 °C.

In turn, `CCOC(=O)CC[C@H](NC(=O)c1ccc(Br)cc1)C(=O)OCC` displayed a melting point of 82.5 to 83.5 °C.

Compound `COC(CCC(N)=C(SC)S(C)=O)OC` (stereo unspecified) returned a melting point of 86 to 87 °C.

`C=CC[Si](C)(C)c1cccc(Cl)c1C(=O)NCC`: the melting point fell in the range of 61 to 63 °C.

In the case of `CC1=NC(NC(=O)Nc2cccc(C)c2)C(=O)N(CC(=O)C2CCCCC2)c2c(C)cccc21` (stereo unspecified), the melting point lay within 179 to 181 °C.

Compound `CC(C)NC(=O)c1cc(Cl)nc(Cl)c1NC(=O)c1cc(C(F)(F)F)nn1-c1ncccc1Cl` returned a melting point of 240 to 242 °C.

In the case of `CC(=O)c1c(F)cccc1N1CCN(CCCCOc2ccc3c(n2)NC(=O)CC3)CC1`, the melting point was 64 °C.

As to `CN1CCCN(C)P1(=O)Cc1ccc(NC(=O)C2=Cc3cc(-c4ccccc4)ccc3CC2)cc1`, the melting point lay in the range of 249 to 250 °C.

`O=C(O)CCCc1cc2nc(Cl)ccc2n1S(=O)(=O)c1ccc2c(c1)OC(F)(F)O2` showed a melting point of 216 °C.

Compound `O=C(O)c1cc(=O)cc(-c2cccc3ccccc23)o1` returned a melting point of 248 to 249 °C.

The compound `Oc1ccc(CCCCn2cncn2)cc1` had a melting point of 135 to 136 °C.

Turning to `Cc1ccc(C)n1-c1cc(Br)c2ccc3[nH]c(=O)c(=O)[nH]c3c2c1`, the melting point was > 270 °C.

On to `CC1(C)CN2C(=O)c3ccccc3C(O)(c3ccc(F)cc3)C2=N1` (stereo unspecified), for which the melting point lay within 168 to 170 °C.

Compound `COC(OC)c1cccc(NCc2ccccc2)c1` had a melting point of 55 to 56 °C.

For the compound `c1coc(-c2cc3[nH]ccn3n2)c1`, the melting point was 186 to 188 °C.

The compound `CS(=O)(=O)c1ccc(-c2cnn(-c3ccc(C(=O)n4cccc4)cc3)c(=O)c2-c2ccc(F)cc2)cc1` had a melting point of 229 to 231 °C.

As for `Oc1cc(O)c2c(c1)Oc1cc(Br)ccc1CC2`, the melting point is 178 to 180 °C.

`COc1cc(N)ccc1-c1cnc(C)s1` registered a melting point of 125 to 129 °C.

`Cc1noc(NC(=O)N2CCN(c3cc(-c4cccc(F)c4F)ncn3)CC2)c1C` showed a melting point of 210 to 211 °C.

Compound `CN(Cc1sc2c(=O)c(C(=O)NCc3ccc(Cl)cc3)cn(C)c2c1COCC[Si](C)(C)C)CC(O)c1cc2ccccc2o1` (stereo unspecified) returned a melting point of 157 to 159 °C.

As to `CN(C)c1ccnc(CO)n1`, the melting point was in the range of 83 to 84 °C.

In the case of `NC(=O)N1c2ccccc2C(Br)C(Br)c2ccccc21` (stereo unspecified), the melting point turned out to be 144 °C.

In turn, `CN1CCN(c2cccc3ccc(C(=O)c4ccccc4)cc23)CC1` displayed a melting point of 124 °C.

Compound `CCCc1c(OCCCCCOc2coc(CO)cc2=O)ccc(C(C)=O)c1O` displayed a melting point of 94 to 95 °C.
